In brackets after ≈: the same amount, converted by molar mass.

One series has as its system L929 cells. Put plainly: cells. Format: cell-based, murine. The note with it: Mus musculus, L929, 24 h, read-out: IC50 (µM) L929. The protocol:
Considering our previous research and the literature reports on the antitumor activity of aziridine derivatives, aziridine phosphines (1–4) and aziridine phosphine oxides (5–9) were tested to investigate their potential anticancer activity. The in vitro effects on cell viability were assessed using the 3-(4,5-dimethylthiazol-2-yl)-2,5-diphenyltetrazolium bromide (MTT) assay on non-tumorigenic murine fibroblasts (L929) as well as two cancer cell lines: human cervical epithelioid carcinoma (HeLa) cells and endometrial adenocarcinoma (Ishikawa) cells.
Cell viability inhibition: The in vitro effects on cell viability were determined using the 3-(4,5-dimethylthiazol-2-yl)-2,5-diphenyltetrazolium bromide (MTT) assay on non-tumorigenic murine fibroblasts L929 (ATTC®—CCL-1) as well as two cancer cell lines: human cervical epithelioid carcinoma HeLa cells (ATTC®—CCL-2™) and endometrial adenocarcinoma Ishikawa cells (ECACC 99040201). Cells were cultured on 96-well microplates at a density of 1 × 10^4 cells/well following the international in Dulbecco’s Modified Eagle’s Medium (DMEM, Biowest) supplemented with 10% fetal bovine serum (FBS, Biowest, Nuaillé, France), 100 U/mL of penicillin, and 100 μg/mL of streptomycin (Biowest, Nuaillé, France). After overnight incubation at 37 °C and 5% CO2, the growth medium was removed and 100 μL of fresh media with two-fold dilutions of the tested compounds at concentrations of 3.125–100 μM were added. […] Untreated cells in medium were used as a positive control, while a clear culture medium served as a negative control.

In series [1] the test system is Staphylococcus aureus ATCC 6538. Put plainly: MIC, two-fold microdilution (EUCAST), S. aureus reference strain. Format: cell-based. The note with it: Staphylococcus aureus, ATCC6538, 18 h, read-out: MIC (µM) Staphylococcus aureus ATCC 6538. The source says: A panel of reference bacteria, including Escherichia coli NCTC 8196, Staphylococcus aureus ATCC 6538, Klebsiella pneumoniae ATCC 13883, and Pseudomonas aeruginosa NCTC 6749, was used to assess the antibacterial activity of the nine tested aziridine phosphines (1–4) and aziridine phosphine oxides (5–9). The two-fold microdilution method, following EUCAST guidelines, was used to determine a minimal inhibitory concentration (MIC) of each compound, as presented in Table S1.
Antibacterial activity: The in vitro antibacterial activity of nine tested aziridine phosphines (1–4) and aziridine phosphine oxides (5–9) was evaluated against reference bacterial strains (E. coli NCTC 8196, S. aureus ATCC 6538, K. pneumoniae ATCC 13883, P. aeruginosa NCTC 6749) and 12 S. aureus clinical isolates, including two methicillin-resistant isolates (MRSA, D15 and D17) obtained from infected patients hospitalized at the Oncological Hospital in Lodz (Poland). All strains were kept frozen at −80 °C in Tryptic Soy Broth with 15% glycerol. The minimal inhibitory concentration (MIC) is defined as the lowest concentration of the compound that prevents visible growth of bacteria using the microdilution method followed the EUCAST guidelines. Each compound was added to 96-well microplates in two-fold dilutions at concentrations from 3.125 to 100 μM in Mueller–Hinton broth. […] Bacterial culture was added into wells at a density of 5 × 10^5 CFU mL^−1, and plates were incubated at 37 °C for 18 h. As a positive control, an untreated bacterial culture was used, and a clear culture medium served as a negative control. The optical density at OD600 was measured using the SpectraMax i3 Multi-Mode Platform (Molecular Devices, San Jose, CA, USA). Ciprofloxacin hydrochloride (CIP, Sigma-Aldrich, Darmstadt, Germany) was used as a reference antimicrobial drug.

For a further series, the system named is HeLa cells. As to the kind of experiment: LDH release assay. Format: cell-based, human. As to conditions: 24 h, highest concentration of 50 µM. The procedure:
In order to distinguish whether the cell viability inhibition was attributed to growth inhibition or cytotoxicity manifested by cell membrane disruption, the lactate dehydrogenase (LDH) release assay was conducted. LDH is a cytoplasmic enzyme rapidly released from cells upon membrane damage, a key feature of apoptosis, necrosis, and other forms of cell death. The released enzyme can be detected due to its ability to convert lactate into pyruvate and NADH, which is then specifically determined by a colorimetric assay.
Figure 3 The effects of 5 (blue) and 7 (green) on LDH release from HeLa cells. The cells were treated with compounds at a concentration range of 3.125–50 μM for 24 h at 37 °C and 5% CO2. Data are presented as the mean LDH release (%) ± SD of two experiments compared to untreated control (red). Statistical significance measured by two-way analysis of variance (ANOVA) is indicated by asterisks: (*) p < 0.05.
LDH release assay: The activity of 5 and 7 on cell membrane destabilization was determined with the CytoTox 96®Non-Radioactive Cytotoxicity Assay (Promega, Madison, WI, USA). […] After incubation, Stop Solution (50 μL) was added to each well, and the absorbance was measured at 490 nm using the SpectraMax i3 Multi-Mode Platform (Molecular Devices, San Jose, CA, USA). […]
A general note: Release of lactate dehydrogenase indicates damage to the cell membrane.

As for `CC(C)[C@@H]1CN1c1ccccc1P(=O)(c1ccccc1)c1ccccc1` [Compound 5], the IC50 with L929 cells was 10.6 ± 3.2 µM. Further, the MIC in series [1] is 50 µM (≈ 18.1 µg/mL). Moreover, the “LDH release compared to untreated control” value in the series with HeLa cells is recorded as “significant LDH release”.

Take `CC(C)C[C@H]1CN1c1ccccc1P(=O)(c1ccccc1)c1ccccc1` [Compound 7]: the IC50 with L929 cells worked out at 17.5 ± 2.1 µM. Moreover, the MIC in series [1] amounted to 50 µM (≈ 18.8 µg/mL). Also, the “LDH release compared to untreated control” value in the series on HeLa cells is reported as “significant LDH release”.

What is called IC50 is the midpoint of a concentration-inhibition curve. Broadly, the MIC is the smallest concentration in the dilution series that meets the test's criterion for growth inhibition.
